In assay [1] the test system is avb3. The assay is described as follows: EC50 [nM]. From the text:
Table printed on a drawing sheet, FIG. 4
Head of the field: EC50 [nM]
The patent's description of the figure: FIG. 4: avb3 binding of selected examples and EC50 values
First copying reader's note: EC50 values relate to the αvβ3 binding assay plotted next to the table; R^2 is the goodness of fit of the curve.
Where the first naming reader finds the target: description_of_the_figure: FIG. 4: avb3 binding of selected examples and EC50 values

Assay [2] has as its system SUM149. Kind of assay: Cytotoxicity in vitro in the presence and absence of elastase (MTT assay). It counts as cell-based. As to conditions: SUM149 cells, 72 h. An outline of the steps: (§1)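 Two matched sets receive test compound across 10^−5 to 10^−13 M, one with 10 nM elastase added, and are incubated 72 h at 37 °C. Proliferation is measured by MTT (4 h, then overnight detergent lysis, 570 nm) against untreated controls.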

Assay [3] deals with HT29. The description is as above. It counts as cell-based, human. Conditions: HT29 cells, 72 h. Put shortly:
as §1

Assay [4] deals with 786-O. The description is as above. It counts as cell-based, human. As to conditions: 786-O cells, 72 h. An outline of the steps: as §1
Assay [5] has as its system NCI H292. The assay is described as above. The class given is cell-based, human. As to conditions: NCI H292 cells, 72 h. An outline of the steps:
as §1

Usually EC50 stands for the concentration giving half of the maximal effect. A lower EC50 goes with higher potency in that assay. The IC50 is the concentration at which inhibition is half-maximal. Read a low IC50 as greater potency in that assay. In assay [1], `CCCNC(=O)Nc1cccc(S(=O)(=O)Nc2cccc([C@@H](CC(=O)O)NC(=O)Nc3ccc(NC(=O)NCCC(=O)NCCCC[C@H](NC(=O)CCNC(=O)Nc4ccc(NC(=O)N[C@H](CC(=O)O)c5cccc(NS(=O)(=O)c6cccc(NC(=O)NCCC)c6)c5)cc4)C(=O)NCCOCCOCCOCCC(=O)N[C@@H](CC(=O)O)C(=O)N4CCC[C@H]4C(=O)N[C@H](C(=O)O[C@]4(CC)C(=O)OCc5c4cc4n(c5=O)Cc5c-4nc4ccccc4c5CC)C(C)C)cc3)c2)c1` [Compound A2] displayed an EC50 of 97 nM. The IC50 is 10 to 100 nM in assay [2] (compound alone (no elastase)); 0.01 to 0.1 nM in assay [2] (with 10 nM elastase); greater than 100 nM in assay [3] (compound alone (no elastase)); 0.01 to 0.1 nM in assay [3] (with 10 nM elastase); 10 to 100 nM in assay [4] (compound alone (no elastase)); 0.01 to 0.1 nM in assay [4] (with 10 nM elastase). In addition, the 50% inhibitory concentration (IC50) in assay [5] (compound alone (no elastase)) lay within 10 to 100 nM; in assay [5] (with 10 nM elastase), 0.01 to 0.1 nM.

Consider `CCCNC(=O)Nc1cccc(S(=O)(=O)Nc2cccc(C(CC(=O)O)NC(=O)Nc3ccc(NC(=O)NCCOCCOCCOCCC(=O)NCCCCC(NC(=O)CCOCCOCCOCCNC(=O)Nc4ccc(NC(=O)NC(CC(=O)O)c5cccc(NS(=O)(=O)c6cccc(NC(=O)NCCC)c6)c5)cc4)C(=O)NCCOCCOCCOCCC(=O)NC(CC(=O)O)C(=O)N4CCCC4C(=O)NC(C(=O)OC4(CC)C(=O)OCc5c4cc4n(c5=O)Cc5c-4nc4ccccc4c5CC)C(C)C)cc3)c2)c1` (stereo not shown) [Compound A3], for which it took 55 nM to reach a half-maximal effect in assay [1] (EC50).

The record behind these values is patent publication US20240423973A1, “COMPOUNDS, PHARMACEUTICAL COMPOSITIONS, AND METHODS FOR THE TREATMENT, PREVENTION, OR MANAGEMENT OF HYPERPROLIFERATIVE DISORDERS” (VINCERX PHARMA GMBH, priority 2021, published 2024).
